Measured values taken from article PMC7232187, “High-Throughput Screening of the ReFRAME Library Identifies Potential Drug Repurposing Candidates for Trypanosoma cruzi” (Microorganisms, 2020).
Where two headings read alike, the source gives them in different places.

Experiments:
CA-I/72 T. cruzi = test: Phenotypic high-content imaging assay, intracellular T. cruzi amastigotes in C2C12 host cells; format: cell-based, Trypanosoma cruzi; settings: for Selectivity Index (SI): SI = CC50 (C2C12) / EC50 (T. cruzi CA-I/72); for EC50: Trypanosoma cruzi, read-out: EC50 CA-I/72 T. cruzi
Description: C2C12 mouse myoblasts (ATCC CRL-1772) and CA-I/72 T. cruzi (kindly donated by J. Dvorak, NIH) were cultured in Dulbecco’s Modified Eagle Medium (Invitrogen, Carlsbad, CA, USA), supplemented with 5% fetal bovine serum (Sigma Aldrich, St. Louis, MO, USA) and 1% penicillin-streptomycin (Invitrogen, Carlsbad, CA, USA) at 37 °C and 5% CO2 essentially as described [11]. Passaging of CA-I/72 T. cruzi was conducted weekly via co-culture with C2C12 host cells.
Compounds from the ReFRAME library, benznidazole (Sigma Alderich, St. Louis, MO, USA) and DMSO (Sigma Alderich, St. Louis, MO, USA), were transferred to black 1536-well plates (Greiner Bio One, Kremsmünster, Austria) with clear bottoms using an Acoustic Transfer System (ATS) instrument (EDC Biosystems, Fremont, CA, USA). C2C12 cells were seeded at a density of 100 cells per well, and CA-I/72 T. cruzi parasites were seeded at a density of 1500 cells per well, using a Multidrop Combi liquid handler (Thermo Scientific, Waltham, MA, USA). Plates were incubated at 37 °C and 5% CO2 for 72 h in humidified trays to reduce edge effect. Following this incubation, paraformaldehyde (4% final concentration) in 1× phosphate buffered saline (PBS, Invitrogen, 10010023) was used to fix the cells for 1 h. The cells were then subsequently treated with 5 µg/mL DAPI staining solution (Sigma Aldrich, D9542) for 1 h. Next, the plates were imaged using an ImageXpress Micro XLS automated high-content imager (Molecular Devices, San Jose, CA, USA), using the 10× fluorescence objective. Images were analyzed automatically using a custom image analysis module [9, 11].
Compounds from the ReFRAME library were pre-spotted on 1536 clear-bottom black well plates in 100% dimethylsulfoxide (DMSO) for a final concentration of 10 µM in 10 µL final volume (and 0.1% DMSO final concentration). C2C12 mouse myoblasts and CA-I/72 strain T. cruzi trypomastigotes were added to the plate in a 1:15 infection ratio and incubated for 72 h at 37 °C and 5% CO2. Cells were then fixed with 4% paraformaldehyde (final concentration), and stained with 5 µg/mL of 4’,6-diamidino-2-phenylindole (DAPI) to highlight the nuclei from the host cells and parasites. Using an ImageXpress Micro XLS automated microscope (10× magnification setting), fluorescence images of C2C12 and T. cruzi amastigote nuclei were acquired for each well, and the number of host cell nuclei and amastigote nuclei were automatically determined using a custom image analysis module as previously described [9, 10, 11] […] Parasite amastigote nuclei were selectively counted over trypomastigote nuclei, via distance gating of parasitic nuclei distance from host cell nuclei in the microscopy images.

in vitro = settings: mouse
Description: C2C12 mouse myoblasts (ATCC CRL-1772) and CA-I/72 T. cruzi (kindly donated by J. Dvorak, NIH) were cultured in Dulbecco’s Modified Eagle Medium (Invitrogen, Carlsbad, CA, USA), supplemented with 5% fetal bovine serum (Sigma Aldrich, St. Louis, MO, USA) and 1% penicillin-streptomycin (Invitrogen, Carlsbad, CA, USA) at 37 °C and 5% CO2 essentially as described. Passaging of CA-I/72 T. cruzi was conducted weekly via co-culture with C2C12 host cells.
Compounds from the ReFRAME library, benznidazole (Sigma Alderich, St. Louis, MO, USA) and DMSO (Sigma Alderich, St. Louis, MO, USA), were transferred to black 1536-well plates (Greiner Bio One, Kremsmünster, Austria) with clear bottoms using an Acoustic Transfer System (ATS) instrument (EDC Biosystems, Fremont, CA, USA). C2C12 cells were seeded at a density of 100 cells per well, and CA-I/72 T. cruzi parasites were seeded at a density of 1500 cells per well, using a Multidrop Combi liquid handler (Thermo Scientific, Waltham, MA, USA). Plates were incubated at 37 °C and 5% CO2 for 72 h in humidified trays to reduce edge effect. Following this incubation, paraformaldehyde (4% final concentration) in 1× phosphate buffered saline (PBS, Invitrogen, 10010023) was used to fix the cells for 1 h. The cells were then subsequently treated with 5 µg/mL DAPI staining solution (Sigma Aldrich, D9542) for 1 h. Next, the plates were imaged using an ImageXpress Micro XLS automated high-content imager (Molecular Devices, San Jose, CA, USA), using the 10× fluorescence objective. Images were analyzed automatically using a custom image analysis module.
Compounds from the ReFRAME library were pre-spotted on 1536 clear-bottom black well plates in 100% dimethylsulfoxide (DMSO) for a final concentration of 10 µM in 10 µL final volume (and 0.1% DMSO final concentration). C2C12 mouse myoblasts and CA-I/72 strain T. cruzi trypomastigotes were added to the plate in a 1:15 infection ratio and incubated for 72 h at 37 °C and 5% CO2. Cells were then fixed with 4% paraformaldehyde (final concentration), and stained with 5 µg/mL of 4’,6-diamidino-2-phenylindole (DAPI) to highlight the nuclei from the host cells and parasites. Using an ImageXpress Micro XLS automated microscope (10× magnification setting), fluorescence images of C2C12 and T. cruzi amastigote nuclei were acquired for each well, and the number of host cell nuclei and amastigote nuclei were automatically determined using a custom image analysis module as previously described (Figure 1). Parasite amastigote nuclei were selectively counted over trypomastigote nuclei, via distance gating of parasitic nuclei distance from host cell nuclei in the microscopy images.
Infection levels were calculated as a ratio of the number of T. cruzi amastigotes per C2C12 host cell, as determined by nuclei counting. Compound toxicity was determined by dividing the number of host cell nuclei in a drug-treated well by the average of the vehicle controls. For both infection ratios and cell viability ratios, values were normalized to the vehicle controls to determine percent activity and toxicity, respectively. Control wells containing uninfected C2C12 cells, infected C2C12 cells with 0.1% DMSO, and infected C2C12 cells with 0.1% DMSO and 50 µM benznidazole were prepared in each plate for data normalization. […] Hit selection cutoffs for the primary screen were set at 70% antiparasitic activity (70% parasite reduction compared to untreated controls) and 50% host cell viability at 10 µM compound compared to untreated controls (represents approximately three standard deviations from the average of the untreated controls).

[1] = intracellular amastigotes in C2C12, 72 h, 10-point 3-fold dose response in duplicate, +/- SE
[2] = C2C12 mouse myoblasts co-cultured with CA-I/72 T. cruzi

SMILES | Selectivity Index (SI) (CA-I/72 T. cruzi) | EC50 (CA-I/72 T. cruzi; [1]) [nM] | CC50 at 72 h (in vitro) [nM] | EC50 (CA-I/72 T. cruzi; C2C12, 72 h) [nM] | CC50 at 72 h (in vitro; [2]) [nM]
O=P(O)(O)C(NC1CCCCCC1)P(=O)(O)O [Incadronate Disodium, incadronate disodium] | >20 | 480 | > 10000 |  | 
COc1cc2c3c(n(CCCNCCO)c(=O)c2cc1OC)-c1cc2c(cc1C3=O)OCO2 [NSC-706744] | 214 |  | 94 | 0.44 | 
N#Cc1ccc(Cn2cncc2CN2CCN(c3cccc(Cl)c3)C(=O)C2)cc1Oc1ccccc1 [Prenyl-IN-1] | 10 | 18 |  |  | 182
COc1ccccc1N1CCN(CCCCn2c(=O)sc3cc(CCN4CCC(C(=O)c5ccc(F)cc5)CC4)ccc32)CC1 [3-[4-[4-(2-Methoxyphenyl)piperazine-1-yl]butyl]-6-[2-[4-(4-fluorobenzoyl)piperidine-1-yl]ethyl]benzothiazole-2(3H)-one] | 145 | 22 |  |  | 3190
C=CC(=O)N1CC[C@@H](Oc2nc(Nc3ccc(N4CCC(N5CCN(C)CC5)CC4)cc3)c(C(N)=O)nc2CC)C1 [ASP-8273, naquotinib] | 191 | 2.7 |  |  | 515
Cc1cccc2nc3cccc(C(=O)NCCNCCNCCNC(=O)c4cccc5nc6cccc(C)c6nc45)c3nc12 [XR 5944] | 13 | 3.5 |  |  | 46
C=C(NNC(=S)NNC(=S)Nc1ccccc1Cl)c1ccccn1 [348U87, 2-acetylpyridine 5-[(2-chloroanilino)-thiocarbonyl]-thiocarbonohydrazone] | 1294 | 0.63 |  |  | 815
